Experimental data: patent US20250147039A1, “Compounds for complexation of rare earth elements and/or s-, p-, d- block metals, their coordination compounds, peptide conjugates, method of their preparation and use thereof” (USTAV ORGANICKE CHEMIE A BIOCHEMIE AV CR V.V.I., priority 2021, published 2025)

Experiments:
[1] = Formation of 1,5-cz-[M(Lig)] from Lig and M^III ions (metal dependent click-zip) (Charts 4, 5); type: physicochemical; details: MOPS/NaOH buffer pH 7.0, TD728, TD827 in 50% i-PrOH; for conversion to 1,5-cz-[M(Lig)], Y^III: TD714 sum of two diastereoisomers
[2] = Formation of 1,5-cz-[Ln(Lig)] from Lig and Ln^III ions (metal dependent click-zip), MOPS/NaOH buffer pH 7.0, analytical HPLC (Charts 1, 2); details: MOPS/NaOH buffer pH 7.0

Row | SMILES | conversion to 1,5-cz-[M(Lig)], Sc^III ([1]; 1 week at 80° C.) | conversion to 1,5-cz-[M(Lig)], Y^III ([1]; 1 week at 80° C.) | conversion to 1,5-cz-[M(Lig)], Sc^III ([1]; 1 hour at 80° C.) | conversion to 1,5-cz-[M(Lig)], Y^III ([1]; 1 hour at 80° C.) | conversion to 1,5-cz-[Ln(Lig)], Ce^III ([2]; after 1 week at 80° C.) | conversion to 1,5-cz-[Ln(Lig)], Ce^III ([2]; after 1 hour at 80° C.) | conversion to 1,5-cz-[Ln(Lig)], Dy^III ([2]; after 1 week at 80° C.) | conversion to 1,5-cz-[Ln(Lig)], Dy^III ([2]; after 1 hour at 80° C.) | conversion to 1,5-cz-[Ln(Lig)], Er^III ([2]; after 1 week at 80° C.) | conversion to 1,5-cz-[Ln(Lig)], Er^III ([2]; after 1 hour at 80° C.) | conversion to 1,5-cz-[Ln(Lig)], Eu^III ([2]; after 1 week at 80° C.) | conversion to 1,5-cz-[Ln(Lig)], Eu^III ([2]; after 1 hour at 80° C.) | conversion to 1,5-cz-[Ln(Lig)], Gd^III ([2]; after 1 week at 80° C.) | conversion to 1,5-cz-[Ln(Lig)], Gd^III ([2]; after 1 hour at 80° C.) | conversion to 1,5-cz-[Ln(Lig)], Ho^III ([2]; after 1 week at 80° C.) | conversion to 1,5-cz-[Ln(Lig)], Ho^III ([2]; after 1 hour at 80° C.) | conversion to 1,5-cz-[Ln(Lig)], La^III ([2]; after 1 week at 80° C.) | conversion to 1,5-cz-[Ln(Lig)], La^III ([2]; after 1 hour at 80° C.) | conversion to 1,5-cz-[Ln(Lig)], Lu^III ([2]; after 1 week at 80° C.) | conversion to 1,5-cz-[Ln(Lig)], Lu^III ([2]; after 1 hour at 80° C.) | other results
1 | C#Cc1cccc(CN2CCN(CC(=O)O)CCN(Cc3cc(C(F)(F)F)cc(CN=[N+]=[N-])n3)CCN(CC(=O)O)CC2)n1 [TD1063] | 8% | 91% | 1% | 20% | 1% | 1% | 86% | 15% | 93% | 33% | 73% | 4% | 74% | 5% | 90% | 22% | 5% | 0% | 95% | 54% | conversion to 1,5-cz-[Ln(Lig)], Nd^III ([2]; after 1 week at 80° C.): 52%; conversion to 1,5-cz-[Ln(Lig)], Nd^III ([2]; after 1 hour at 80° C.): 2%; conversion to 1,5-cz-[Ln(Lig)], Pr^III ([2]; after 1 week at 80° C.): 35%; conversion to 1,5-cz-[Ln(Lig)], Pr^III ([2]; after 1 hour at 80° C.): 1%; conversion to 1,5-cz-[Ln(Lig)], Sm^III ([2]; after 1 week at 80° C.): 57%; conversion to 1,5-cz-[Ln(Lig)], Sm^III ([2]; after 1 hour at 80° C.): 3%; conversion to 1,5-cz-[Ln(Lig)], Tb^III ([2]; after 1 week at 80° C.): 83%; conversion to 1,5-cz-[Ln(Lig)], Tb^III ([2]; after 1 hour at 80° C.): 10%; conversion to 1,5-cz-[Ln(Lig)], Tm^III ([2]; after 1 week at 80° C.): 93%; conversion to 1,5-cz-[Ln(Lig)], Tm^III ([2]; after 1 hour at 80° C.): 45%; conversion to 1,5-cz-[Ln(Lig)], Yb^III ([2]; after 1 week at 80° C.): 95%; conversion to 1,5-cz-[Ln(Lig)], Yb^III ([2]; after 1 hour at 80° C.): 53%
2 | [N-]=[N+]=NCc1cccc(CN2CCN(CC(=O)O)CCN(Cc3cccc(C#CC4CCNCC4)n3)CCN(CC(=O)O)CC2)n1 [TD1127] | 29% | 83% | 0% | 2% | 7% | 0% | 80% | 2% | 91% | 4% | 53% | 1% | 56% | 1% | 86% | 3% | 18% | 0% | 97% | 13% | conversion to 1,5-cz-[Ln(Lig)], Nd^III ([2]; after 1 week at 80° C.): 25%; conversion to 1,5-cz-[Ln(Lig)], Nd^III ([2]; after 1 hour at 80° C.): 0%; conversion to 1,5-cz-[Ln(Lig)], Pr^III ([2]; after 1 week at 80° C.): 15%; conversion to 1,5-cz-[Ln(Lig)], Pr^III ([2]; after 1 hour at 80° C.): 0%; conversion to 1,5-cz-[Ln(Lig)], Sm^III ([2]; after 1 week at 80° C.): 46%; conversion to 1,5-cz-[Ln(Lig)], Sm^III ([2]; after 1 hour at 80° C.): 0%; conversion to 1,5-cz-[Ln(Lig)], Tb^III ([2]; after 1 week at 80° C.): 72%; conversion to 1,5-cz-[Ln(Lig)], Tb^III ([2]; after 1 hour at 80° C.): 1%; conversion to 1,5-cz-[Ln(Lig)], Tm^III ([2]; after 1 week at 80° C.): 93%; conversion to 1,5-cz-[Ln(Lig)], Tm^III ([2]; after 1 hour at 80° C.): 7%; conversion to 1,5-cz-[Ln(Lig)], Yb^III ([2]; after 1 week at 80° C.): 95%; conversion to 1,5-cz-[Ln(Lig)], Yb^III ([2]; after 1 hour at 80° C.): 10%
3 | [N-]=[N+]=NCc1cccc(CN2CCN(CC(=O)O)CCN(Cc3cccc(C#CC45CC6CC(CC(C6)C4)C5)n3)CCN(CC(=O)O)CC2)n1 [TD992] | 2% | 87% | 0% | 2% | 20% | 0% | 81% | 1% | 95% | 2% | 59% | 1% | 61% | 1% | 89% | 2% | 22% | 0% | 99% | 6% | conversion to 1,5-cz-[Ln(Lig)], Nd^III ([2]; after 1 week at 80° C.): 40%; conversion to 1,5-cz-[Ln(Lig)], Nd^III ([2]; after 1 hour at 80° C.): 0%; conversion to 1,5-cz-[Ln(Lig)], Pr^III ([2]; after 1 week at 80° C.): 33%; conversion to 1,5-cz-[Ln(Lig)], Pr^III ([2]; after 1 hour at 80° C.): 0%; conversion to 1,5-cz-[Ln(Lig)], Sm^III ([2]; after 1 week at 80° C.): 55%; conversion to 1,5-cz-[Ln(Lig)], Sm^III ([2]; after 1 hour at 80° C.): 1%; conversion to 1,5-cz-[Ln(Lig)], Tb^III ([2]; after 1 week at 80° C.): 73%; conversion to 1,5-cz-[Ln(Lig)], Tb^III ([2]; after 1 hour at 80° C.): 1%; conversion to 1,5-cz-[Ln(Lig)], Tm^III ([2]; after 1 week at 80° C.): 98%; conversion to 1,5-cz-[Ln(Lig)], Tm^III ([2]; after 1 hour at 80° C.): 4%; conversion to 1,5-cz-[Ln(Lig)], Yb^III ([2]; after 1 week at 80° C.): 99%; conversion to 1,5-cz-[Ln(Lig)], Yb^III ([2]; after 1 hour at 80° C.): 5%
4 | [N-]=[N+]=NCc1cccc(CN2CCN(CC(=O)O)CCN(Cc3cccc(C#CC4CC4)n3)CCN(CC(=O)O)CC2)n1 [TD943] | 5% | 74% | 0% | 1% | 4% | 0% | 65% | 1% | 88% | 2% | 36% | 0% | 40% | 0% | 77% | 2% | 5% | 0% | 97% | 5% | conversion to 1,5-cz-[Ln(Lig)], Nd^III ([2]; after 1 week at 80° C.): 16%; conversion to 1,5-cz-[Ln(Lig)], Nd^III ([2]; after 1 hour at 80° C.): 0%; conversion to 1,5-cz-[Ln(Lig)], Pr^III ([2]; after 1 week at 80° C.): 10%; conversion to 1,5-cz-[Ln(Lig)], Pr^III ([2]; after 1 hour at 80° C.): 0%; conversion to 1,5-cz-[Ln(Lig)], Sm^III ([2]; after 1 week at 80° C.): 29%; conversion to 1,5-cz-[Ln(Lig)], Sm^III ([2]; after 1 hour at 80° C.): 0%; conversion to 1,5-cz-[Ln(Lig)], Tb^III ([2]; after 1 week at 80° C.): 56%; conversion to 1,5-cz-[Ln(Lig)], Tb^III ([2]; after 1 hour at 80° C.): 1%; conversion to 1,5-cz-[Ln(Lig)], Tm^III ([2]; after 1 week at 80° C.): 94%; conversion to 1,5-cz-[Ln(Lig)], Tm^III ([2]; after 1 hour at 80° C.): 3%; conversion to 1,5-cz-[Ln(Lig)], Yb^III ([2]; after 1 week at 80° C.): 97%; conversion to 1,5-cz-[Ln(Lig)], Yb^III ([2]; after 1 hour at 80° C.): 3%
5 | C#Cc1cccc(CN2CCN(CC(=O)O)CCN(Cc3cccc(CN=[N+]=[N-])n3)CCN(CC(=O)O)CC2)n1 [TD556] | 23% | 95% | 2% | 22% | 25% | 1% | 94% | 16% | 95% | 37% | 92% | 4% | 91% | 5% | 95% | 24% | 50% | 1% | 95% | 71% | conversion to 1,5-cz-[Ln(Lig)], Nd^III ([2]; after 1 week at 80° C.): 81%; conversion to 1,5-cz-[Ln(Lig)], Nd^III ([2]; after 1 hour at 80° C.): 2%; conversion to 1,5-cz-[Ln(Lig)], Pr^III ([2]; after 1 week at 80° C.): 64%; conversion to 1,5-cz-[Ln(Lig)], Pr^III ([2]; after 1 hour at 80° C.): 1%; conversion to 1,5-cz-[Ln(Lig)], Sm^III ([2]; after 1 week at 80° C.): 92%; conversion to 1,5-cz-[Ln(Lig)], Sm^III ([2]; after 1 hour at 80° C.): 3%; conversion to 1,5-cz-[Ln(Lig)], Tb^III ([2]; after 1 week at 80° C.): 95%; conversion to 1,5-cz-[Ln(Lig)], Tb^III ([2]; after 1 hour at 80° C.): 11%; conversion to 1,5-cz-[Ln(Lig)], Tm^III ([2]; after 1 week at 80° C.): 95%; conversion to 1,5-cz-[Ln(Lig)], Tm^III ([2]; after 1 hour at 80° C.): 52%; conversion to 1,5-cz-[Ln(Lig)], Yb^III ([2]; after 1 week at 80° C.): 95%; conversion to 1,5-cz-[Ln(Lig)], Yb^III ([2]; after 1 hour at 80° C.): 64%
